Laboratory results as given in patent publication US6214856A, “Indolecarboxamides, pharmaceutical compositions and methods of inhibiting calpain” (SmithKline Beecham Corporation, priority 1999, dated 2001).

Each compound was assayed on calpain (assay: inhibition of calpain in vitro (rate of hydrolysis of synthetic fluorogenic substrates)). Conditions: percent decrease in rate of substrate hydrolysis.
Type: biochemical
Protocol: The assays were performed using synthetic fluorogenic substrates. Inhibition of enzyme activity was calculated on the percent decrease in the rate of substrate hydrolysis in the presence of inhibitor relative to the rate in its absence. IC50s (nM) were calculated.

Row | IC50 [nM] | SMILES
1 | 500 | Cn1c(C(=O)N[C@H](C=O)Cc2ccccc2)cc2ccccc21 [Example 1, (S)-N-(1-formyl-2-phenylethyl)-1-methyl-2-indolecarboxamide]
2 | 600 | O=C[C@H](Cc1ccccc1)NC(=O)c1cc2ccccc2[nH]1 [Example 2, (S)-N-(1-formyl-2-phenylethyl)-2-indolecarboxamide]
3 | 600 | CS(=O)(=O)n1c(C(=O)N[C@H](C=O)Cc2ccccc2)cc2ccccc21 [Example 5, (S)-N-(1-formyl-2-phenylethyl)-1-(methylsulfonyl)-2-indolecarboxamide]
4 | 500 | O=C[C@H](Cc1ccccc1)NC(=O)c1cc2ccccc2n1Cc1ccccc1 [Example 6, (S)-N-(1-formyl-2-phenylethyl)-1-(phenylmethyl)-2-indolecarboxamide]

Further lines, the compound ahead of its results:

Row | SMILES | IC50 [nM]
5 | COc1cc2cc(C(=O)N[C@H](C=O)Cc3ccccc3)[nH]c2cc1OCc1ccccc1 [Example 3, (S)-N-(1-formyl-2-phenylethyl)-5-methoxy-6-(phenylmethoxy)-2-indolecarboxamide] | 135
6 | O=C[C@H](Cc1ccccc1)NC(=O)c1cc2cc(Br)ccc2[nH]1 [Example 4, (S)-5-bromo-N-(1-formyl-2-phenylethyl)-2-indolecarboxamide] | 230
7 | COc1ccc2cc(C(=O)N[C@H](C=O)Cc3ccccc3)[nH]c2c1 [Example 7, (S)-N-(1-formyl-2-phenylethyl)-6-methoxy-2-indolecarboxamide] | 600
8 | Cc1c(C(=O)N[C@H](C=O)Cc2ccccc2)n(Cc2ccccc2)c2ccccc12 [Example 8, (S)-N-(1-formyl-2-phenylethyl)-3-methyl-1-(phenylmethyl)-2-indolecarboxamide] | 30
